“And” between values parts separate entries of the source, which are not always exact repeats. Equal entries are not always repeated.
Assays:
HepG2 cells [1] = test: In vitro cytotoxic activity, MTT assay; assay type: cell-based, human; details: 24 h treatment, read-out: IC50, compound concentration required to inhibit cell growth by 50%
Description: The obtained 1,8-naphthalimide–carborane conjugates were investigated for their in vitro antitumor activity by examining their cytotoxic effects using the MTT tetrazolium dye assay against the human cancer cell line HepG2 established from hepatocellular carcinoma. IC50 refers to the drug concentration (µM) required to inhibit cell growth by 50%.
The cytotoxic properties of the synthesized compounds were evaluated using the human hepatocellular carcinoma cell line HepG2 established from hepatocellular carcinoma. The HepG2 cell line was purchased from ECACC (Salisbury, UK). Cells were grown in EMEM medium (Corning®) supplemented with 10% heat-inactivated fetal bovine serum (FBS) (Corning®) and antibiotics (Corning®), at 37 °C in a 5% CO2 atmosphere. Upon reaching 80–90% confluency, cells were detached with the trypsin (Corning®) and transferred into 96-well microplates at a density of 12 × 10^3. After overnight incubation at 37 °C in a humidified atmosphere containing 5% CO2, the cells were treated for the next 24 h with compounds. The stock solution of each compound was prepared in DMSO at 10 mM. The cytotoxicity was evaluated by the MTT assay. […] Subsequently, the medium was aspirated and replaced with 3-(4,5-dimethylthiazol-2-yl)-2,5-diphenyltetrazolium bromide (MTT) dye solution (50 µL, 0.5 mg/mL). After 3 h incubation, the resulting MTT formazan crystals were dissolved in DMSO (100 µL). To ensure the complete dissolution of formazan, the plates were shaken on an orbital microplate shaker at 1000 rpm for 15 min (Thermoshaker NeoLab 7–0055, Bionovo, Legnica, Poland). The optical density of each well was then measured on a VICTOR Nivo multimode plate reader at a wavelength of 570 nm. Each experiment consisted of 6 replications of each concentration, and each experiment was repeated three times independently. The results were calculated as a percentage of control group viability. The IC50 values were determined using a non-linear regression from the plot of % viability against log dose of compounds by using GraphPad Prism 6.0 software (GraphPad, San Diego, CA, USA).

HepG2 cells [2] = test: Analysis of 8-oxo-dG in cellular DNA by HPLC-UV-ED; assay type: cell-based, human; details: HepG2, 24 h; for [8-oxo-dG ± SD] × 10^6, 8-oxo-dG level in cellular DNA: concentration corresponding to total IC50, control 2.88 ± 0.17
Description: We also estimated 8-oxo-dG levels in DNA since 2-deoxyguanosine is most susceptible to oxidation among nucleosides and might serve as an oxidative DNA damage marker within the cells. […] Both compounds generate much higher oxidative disturbance in DNA than mitonafide, resulting in approximately 4- and 6-fold more 8-oxo-dG residues, respectively.
HepG2 cells (1 × 10^6) were seeded onto flasks (25 cm^2) and cultured for 16 h in the EMEM medium (Corning®) supplemented with 10% FBS (Corning®) and antibiotics (Sigma).Subsequently, the cells were treated for 24 h with the tested compounds at a concentration corresponding to their total IC50 values. Next, the cells were trypsinized, rinsed twice with PBS, and pelleted by centrifugation (200× g, 3 min). Total DNA was isolated from the treated cells and untreated control cells using a Genomic mini DNA isolation kit (A&A Biotechnology, Gdynia, Poland) according to the manufacturer′s protocol. The quality of the total DNA was assessed spectrophotometrically.
DNA (1 μg) was dissolved in sodium acetate buffer (10 μL, 40 mM, pH 5.3) containing ZnCl2 (0.1 mM) and digested with nuclease P1 (3 μg). Samples were incubated for 3 h at 37 °C. Subsequently, Tris–HCl (2 μL, 1 M, pH 8.0), alkaline phosphatase (1 U) were added and incubated for 2 h at 37 °C. All DNA hydrolysates were ultrafiltered using cut-off 10,000 Da filter units.
8-Oxo-dG and dG in hydrolysates were determined using HPLC-UV followed by electrochemical detection and ED (Coulochem III Electrochemical Detector, ESA, Inc., Chelmsford, MA, USA). DNA hydrolysates were chromatographed isocratically using ammonium acetate (50 mM pH 5.3)/methanol (93:7, v/v). Detection of dG was performed at 254 nm. Detection of 8-oxo-dG was performed by the electrochemical detector: guard cell + 400 mV, detector 1: +130 mV (as a screening electrode), detector 2: + 350 mV (as a measuring electrode set to sensitivity of 500 nA/V). All results are expressed as the mean ± SD.
To determine 8-oxo-dG levels, guanosine amount was necessary. The total number of 8-oxo-dG residues in the genome was calculated using the unique formula [54].

| Substance | IC50 (HepG2 cells [1]) [µM] | fold increase in number of 8-oxo-dG residues per 10^6 dG as compared to control (HepG2 cells [2]) | fold more 8-oxo-dG residues than mitonafide (HepG2 cells [2]) | [8-oxo-dG ± SD] × 10^6, 8-oxo-dG level in cellular DNA (HepG2 cells [2]) [per 10^6 dG] |
| --- | --- | --- | --- | --- |
| N-[2-N-Pyrrolidinyl)ethyl]-4-[(6-(2-(1,7-dicarba-closo-dodecaborane-1-yl)-ethylamino)hexyl)amino]-1,8-naphthalimide [Compound 61] | 4.79 ± 0.06 | > 43 fold | 4 fold and ~6 fold | 123.92 ± 2.59 |
| N-[2-(Dimethylamino)ethyl]-4-[(6-(2-(1,2-dicarba-closo-dodecaborane-1-yl)-ethylamino)hexyl)amino]-1,8-naphthalimide [Compound 58] | 3.87 ± 1.03 | – | – | 96.58 ± 0.56 |
| N-[2-(Pyrrolidin-1-yl)ethyl]-4-[(2-(2-(1,7-dicarba-closo-dodecaborane-1-yl)-ethylamino)ethyl)amino]-1,8-naphthalimide [Compound 57] | 3.12 ± 0.04 | – | – | 57.54 ± 0.73 |
| N-[2-(Dimethylamino)ethyl]-4-[(2-(2-(1,2-dicarba-closo-dodecaborane-1-yl)-ethylamino)ethyl)amino]-1,8-naphthalimide [Compound 54] | 5.49 ± 0.38 | – | – | 43.17 ± 0.75 |
| N-[2-N-Pyrrolidinyl)ethyl]-4-[(6-(2-(1,2-dicarba-closo-dodecaborane-1-yl)-ethylamino)hexyl)amino]-1,8-naphthalimide [Compound 60] | 30.9 ± 2.66 | over 57 fold | approximately 4 fold | 164.35 ± 6.39 |
| N-[2-(Dimethylamino)ethyl]-4-[(2-(2-(1,7-dicarba-closo-dodecaborane-1-yl)-ethylamino)ethyl)amino]-1,8-naphthalimide [Compound 55] | 3.43 ± 0.28 | – | – | 74.85 ± 1.38 |
| N-[2-(Dimethylamino)ethyl]-4-[(6-(2-(1,7-dicarba-closo-dodecaborane-1-yl)-ethylamino)hexyl)amino]-1,8-naphthalimide [Compound 59] | 5.35 ± 1.36 | – | – | 81.64 ± 0.67 |
| N-[2-(Pyrrolidin-1-yl)ethyl]-4-[(2-(2-(1,2-dicarba-closo-dodecaborane-1-yl)-ethylamino)ethyl)amino]-1,8-naphthalimide [Compound 56] | 12.1 ± 1.03 | – | – | 52.31 ± 0.51 |

From article PMC9101373, “Design of DNA Intercalators Based on 4-Carboranyl-1,8-Naphthalimides: Investigation of Their DNA-Binding Ability and Anticancer Activity” (International Journal of Molecular Sciences, 2022)
